In article PMC5011342, “A high throughput drug screening assay to identify compounds that promote oligodendrocyte differentiation using acutely dissociated and purified oligodendrocyte precursor cells” (BMC Research Notes, 2016):

Legend:
[1] = set-up: method as in Trial NCT00039988; conditions: add-on therapy to capaxone (glatiramir acetate), RRMS patients; ref Trial NCT00039988; cited from earlier work
[2] = tested on: acutely dissociated and purified rat OPCs; assay: Acute OL differentiation assay (MBP expression/cell, immunofluorescent image quantification); assay type: cell-based
Summary of the method: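 Oligodendrocyte precursor cells were enriched from P6-P7 Sprague–Dawley rat brains by immunopanning (RAN-2 and GalC depletion, O4 selection), plated at 5000 cells/well in serum-free, mitogen-free differentiation media on PDL/laminin 96-well view plates, centrifuged at 200×g, and pre-incubated 1–2 h before test compounds were added in quadruplicate. On DIV4, cells were fixed, stained for MBP and DAPI, imaged automatically, and MBP expression per cell was quantified.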

CC(C)(C)NCC(O)c1ccc(O)c(CO)c1 (stereo not shown) [albuterol, reference compound]
clinical outcomes [1]: improved clinical outcomes | promotion of OL differentiation (in words) ([2]; MBP expression versus 0.1 % DMSO negative control): not a hit in our screen | activation at 2 µM ([2]; Rattus norvegicus, 2 uM test compound, relative to quetiapine, sheet "All OLga data", read-out: OL differentiation, 2 uM (% Quet)): -6% | activation at 10 µM ([2]; Rattus norvegicus, 10 uM test compound, relative to quetiapine, sheet "All OLga data", read-out: OL differentiation, 10 uM (% Quet)): 18.6%
